In one test the test system is Incap. Briefly: MTT cancer cell growth inhibition. In kind it is cell-based. Particulars: 72 h.
Test [1] deals with MCF-7 (human breast cancer cells). Briefly: MTT cancer cell growth inhibition. Type of test: cell-based. As to conditions: MCF7, 72 h. From the text:
(§1) 1. Experimental principles: the inhibition of cancer cell growth with compounds is detected by an MTT method. The principle of the MTT method is as follows: yellow thiazolyl blue may penetrate through cell membranes and enter into cells, succinate dehydrogenase in living cell mitochondria may reduce exogenous MTT into water-insoluble ianthinus acicular Formazan crystals which deposit in the cells, the crystals can be dissolved with dimethyl sulfoxide (DMSO), the optical density of the crystals is detected with an enzyme-linked immunometric meter at the wavelength of 490 nm/570 nm, and the number of cells can be indirectly reflected.
(§2) 2. Experimental materials: the used cancer cell lines are Hela (human cervical cancer cells), MCF-7 (human breast cancer cells), BGC-823 (human gastric cancer cells), A549 (human lung cancer cells), HT1080 (human fibrosarcoma cells), A431 (human epidermal squamous cell carcinoma cells), HUVEC (human umbilical vein endothelial cells), DU145 (human prostate cancer cells), K562 (human leukemia cells), U937 (human leukemia cells), Pac-1 (human pancreatic cancer cells), and MOLT-4 (human acute lymphoblastic leukemia cells), which are cultured with a DMEM+10% FBS culture medium or a 1640+10% FBS culture medium, respectively.
(§3) Experimental groups: 190 μl cell suspension+10 μl pharmaceuticals in different concentrations (the final concentration is 10^−5-10^−10M)
(§4) Negative control group: 190 μl cell suspension+10 μl 2% DMSO (the final concentration of DMSO is 0.1%)
(§5) a) Cells are inoculated on a 96-pore plate, with 1500 cells and 190 μl for each hole, and cultured overnight in a 5% CO2 incubator at 37.
(§6) b) 10 μl of different pharmaceuticals is added into each hole the next day, with the final concentration of the pharmaceuticals of 10^−5-10^−10M and three parallel holes, and incubated for 72 h in a 5% CO2 incubator at 37.
(§7) c) 20 μl of 5 mg/mL MTT is added into each hole, and incubated for 4 h in a 5% CO2 incubator at 37.
(§8) d) Supernatant is removed. 100 μl of DMSO is added into each hole and vibrated.
(§9) e) The reading is 570 nm. The cell survival rate is calculated.

The test system of test [2] is HT1080 (human fibrosarcoma cells). Briefly: MTT cancer cell growth inhibition. Particulars: HT-1080, 72 h. Type of test: cell-based.
Description: as §1, §2, §3, §4, §5, §6, §7, §8, §9

For test [3], the system named is BGC-823 (human gastric cancer cells). The experiment in a line: MTT cancer cell growth inhibition. Type of test: cell-based. Particulars: 72 h, read-out: GI50 BGC823.
Description: as §1, §2, §3, §4, §5, §6, §7, §8, §9

In test [4] the test system is MOLT-4 (human acute lymphoblastic leukemia cells). The experiment in a line: MTT cancer cell growth inhibition. Type of test: cell-based. Particulars: 72 h.
Description: as §1, §2, §3, §4, §5, §6, §7, §8, §9

The subject of test [5] is A549 (human lung cancer cells). The experiment in a line: MTT cancer cell growth inhibition. In kind it is cell-based. As to conditions: 72 h.
Description: as §1, §2, §3, §4, §5, §6, §7, §8, §9

The subject of test [6] is DU145 (human prostate cancer cells). Briefly: MTT cancer cell growth inhibition. As to conditions: DU-145, 72 h. Type of test: cell-based.
Description: as §1, §2, §3, §4, §5, §6, §7, §8, §9

Test [7] relates to Hela (human cervical cancer cells). Briefly: MTT cancer cell growth inhibition. Type of test: cell-based. Particulars: 72 h.
Description: as §1, §2, §3, §4, §5, §6, §7, §8, §9

A further test relates to PANC-1. Briefly: MTT cancer cell growth inhibition. Type of test: cell-based. As to conditions: Homo sapiens, 72 h.
Description: as §1, §2, §3, §4, §5, §6, §7, §8, §9

Test [8] relates to U937 (human leukemia cells). The experiment in a line: MTT cancer cell growth inhibition. In kind it is cell-based. Particulars: U-937, 72 h.
Description: as §1, §2, §3, §4, §5, §6, §7, §8, §9

For the next test, the target named is T1, HDAC7 (Homo sapiens, UniProt Q8WUI4).
T1 sequence (Q8WUI4 1-952): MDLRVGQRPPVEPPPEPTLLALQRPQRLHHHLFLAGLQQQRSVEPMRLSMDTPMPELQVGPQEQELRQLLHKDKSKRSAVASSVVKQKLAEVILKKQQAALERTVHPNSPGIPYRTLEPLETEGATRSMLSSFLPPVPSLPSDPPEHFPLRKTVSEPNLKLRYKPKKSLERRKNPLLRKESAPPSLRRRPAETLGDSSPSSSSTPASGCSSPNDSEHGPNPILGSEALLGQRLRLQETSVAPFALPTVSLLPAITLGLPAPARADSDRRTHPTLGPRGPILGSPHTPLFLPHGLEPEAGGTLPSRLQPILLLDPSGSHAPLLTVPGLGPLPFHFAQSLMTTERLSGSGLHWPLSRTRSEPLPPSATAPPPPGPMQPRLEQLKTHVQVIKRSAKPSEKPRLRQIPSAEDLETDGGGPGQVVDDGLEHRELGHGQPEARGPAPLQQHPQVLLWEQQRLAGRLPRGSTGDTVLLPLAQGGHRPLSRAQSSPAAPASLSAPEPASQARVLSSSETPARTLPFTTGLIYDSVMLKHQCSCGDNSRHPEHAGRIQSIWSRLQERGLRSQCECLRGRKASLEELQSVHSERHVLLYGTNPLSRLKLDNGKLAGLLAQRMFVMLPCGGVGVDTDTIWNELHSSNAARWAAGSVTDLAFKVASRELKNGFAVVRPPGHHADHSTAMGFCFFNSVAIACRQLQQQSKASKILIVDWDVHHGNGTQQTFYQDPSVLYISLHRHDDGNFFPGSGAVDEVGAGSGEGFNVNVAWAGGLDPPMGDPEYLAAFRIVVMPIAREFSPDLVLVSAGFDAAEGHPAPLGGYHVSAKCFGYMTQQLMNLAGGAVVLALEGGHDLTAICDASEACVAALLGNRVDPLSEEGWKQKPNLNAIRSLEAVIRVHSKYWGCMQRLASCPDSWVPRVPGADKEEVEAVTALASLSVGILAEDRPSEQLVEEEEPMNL
Briefly: Measurement of biochemical activities of HDAC (fluorescently-labeled acetylated lysine substrate). Here is the method: (§10) 1. Measurement principles: the measurement of biochemical activities of compounds is determined according to the degree of the compounds inhibiting the deacylation of HDAC enzyme. After the fluorescently-labeled substrate containing acetylated lysine side chain reacts with the HDAC enzyme, the fluorogenic substrate is deacetylated. After the deacetylated fluorescently-labeled substrate is cracked by the enzyme, a fluorescent substance is released. The fluorescent substance generates emitting light of 460 nm under the excitation of light of 360 nm.
(§11) 2. Detailed steps: the substrate of HDAC is diluted to […] (the reaction concentration is […]) with a reaction buffer. HDAC enzyme is diluted to a proper concentration. The compounds to be detected in different concentrations are added. The mixture reacts for 30 min at 37. Then the developer with the same volume and twice concentration of the substrate is added into the mixture. The mixture is incubated for 15 min at room temperature. Finally, the reading is measured with a micro plate scanner. The excitation light is 360 nm, the emitting light is 460 nm, and the data is processed with Prime 4 software.

In another test the target is HDAC1 (Homo sapiens, UniProt Q13547). The description is as above. Particulars: read-out: IC50 HDAC1. Here is the method: as §10, §11
Sequence of HDAC1 (Q13547 whole entry, species assumed): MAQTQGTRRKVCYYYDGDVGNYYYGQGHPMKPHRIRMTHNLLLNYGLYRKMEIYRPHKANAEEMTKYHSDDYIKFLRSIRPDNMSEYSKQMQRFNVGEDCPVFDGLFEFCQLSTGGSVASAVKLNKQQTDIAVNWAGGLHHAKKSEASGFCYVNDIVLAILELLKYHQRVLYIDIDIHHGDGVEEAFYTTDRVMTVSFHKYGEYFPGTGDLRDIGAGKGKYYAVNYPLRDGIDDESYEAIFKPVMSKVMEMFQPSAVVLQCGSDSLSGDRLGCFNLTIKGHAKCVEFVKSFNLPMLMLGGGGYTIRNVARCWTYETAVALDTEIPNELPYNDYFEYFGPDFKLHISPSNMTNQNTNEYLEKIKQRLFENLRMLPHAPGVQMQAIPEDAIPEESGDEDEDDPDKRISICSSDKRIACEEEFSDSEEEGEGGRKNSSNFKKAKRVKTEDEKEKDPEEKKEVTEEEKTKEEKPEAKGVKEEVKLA

Molecules are shown by their SMILES.

For orientation: GI50 means the concentration at which growth is held to half of that of the control. The IC50 is the point on the concentration scale where inhibition reaches its midpoint.

For `C/C=C1\NC(=O)c2csc(n2)CNC(=O)C[C@@H](/C=C/CCSC(=O)CCCCCCCCCCCC)OC(=O)[C@H](C(C)C)NC1=O` [Compound 6-3], the GI50 with Incap was 12 µM; in test [1] it was 56.6 µM; in test [2], 25 µM; in [3], 5 µM; in [4] it was 3.64 µM; in [5], 41 µM. For the same molecule, the GI50 in test [6] was 13.6 µM; in test [7] it was 45 µM; in the test on PANC-1, 0.89 µM; in test [8], 10.1 µM. The “IC50 HDAC7” value against HDAC7 was “no activity”. The IC50 on HDAC1 was less than 10 µM.

Consider `C/C=C1\NC(=O)C2C=NC(=N2)CNC(=O)C[C@@H](/C=C/CCSC(=O)CCCCCCC)OC(=O)[C@H](C(C)C)NC1=O` (stereo partly drawn) [Compound 2-4], for which the GI50 with Incap came to 85.2 µM; in [1], 52.6 µM; in test [2], 1.6 µM; in test [3], 2.6 µM; in test [4], 0.9 µM; in test [5] it was 4.5 µM. Moreover, the GI50 in test [6] was determined as 6.4 µM; in [7], 23 µM; in the test with PANC-1, 4.2 µM; in test [8] it was 18.6 µM. Further, the “IC50 HDAC7” value on HDAC7 is “no activity”. Further, the IC50 at HDAC1 is less than 10 µM.

Regarding `C/C=C1\NC(=O)c2csc(n2)CNC(=O)C[C@@H](/C=C/CCSC(=O)CCCCCCC)OC(=O)[C@H](Cc2cccc3ccccc23)NC1=O` [Compound 1-9], the GI50 came to 0.03 µM in the test on Incap; 0.05 µM in [1]; 0.04 µM in test [2]; 0.05 µM in test [3]; 0.01 µM in test [4]; 0.03 µM in test [5]. Also, the GI50 in [6] is 0.003 µM; in test [7] it was 0.05 µM; in the test on PANC-1 it was 0.6 µM; in [8], 0.005 µM. Further, the “IC50 HDAC7” value against HDAC7 is reported as “no activity”. Moreover, the IC50 on HDAC1 is less than 10 µM.

Regarding `C/C=C1\NC(=O)c2ccnc(c2)CNC(=O)C[C@@H](/C=C/CCSC(=O)CCCCCCC)OC(=O)[C@H](C(C)C)NC1=O` [Compound 2-7], the GI50 was determined as 0.65 µM in the test on Incap; 0.09 µM in test [1]; 0.08 µM in test [2]; 0.1 µM in [3]; 2.1 µM in [4]; 0.09 µM in [5]. In addition, the GI50 turned out to be 0.006 µM in [6], 0.1 µM in test [7], 0.8 µM in the test on PANC-1 and 0.009 µM in test [8]. Besides, the “IC50 HDAC7” value against HDAC7 is “no activity”. Further, the half-maximal inhibitory concentration (IC50) at HDAC1 was less than 10 µM.

Take `C=C1NC(=O)c2csc(n2)CNC(=O)C[C@@H](/C=C/CCSC(=O)CCCCCCC)OC(=O)[C@H](C(C)C)NC1=O` [Compound 3-1]: the GI50 with Incap came to 5.4 µM; in [1], 2.1 µM; in test [2] it was 1.06 µM; in test [3], 1.2 µM; in [4], 0.15 µM; in test [5] it was 0.35 µM. Besides, the GI50 in [6] came out at 2.03 µM; in [7], 0.01 µM; with PANC-1 it was 10.6 µM; in test [8], 21.5 µM. In addition, at HDAC7, the “IC50 HDAC7” value is given as “no activity”. Moreover, on HDAC1, the IC50 is less than 10 µM.

In the case of `C/C=C1\NC(=O)c2csc(n2)CNC(=O)C[C@@H](/C=C/CCSC(=O)CCCCCCC)OC(=O)[C@H](C)N(C)C1=O` [Compound 5-1], the GI50 in the test with Incap turned out to be 73.5 µM; in [1], 3.65 µM; in test [2], 19.6 µM; in [3] it was 2.1 µM; in test [4] it was 0.01 µM; in [5] it was 21.3 µM. The GI50 in test [6] stood at 0.65 µM; in [7], 3.05 µM; in the test with PANC-1 it was 0.65 µM; in test [8] it was 0.34 µM. In addition, at HDAC7, the “IC50 HDAC7” value is given as “no activity”. For the same molecule, the IC50 on HDAC1 was less than 10 µM.

Turning to `C/C=C1\NC(=O)c2csc(n2)CNC(=O)C[C@@H](/C=C/CCSC(=O)CCCCCCC)OC(=O)[C@H](CSCC)NC1=O` [Compound 1-12], the GI50 with Incap turned out to be 0.3 µM; in test [1], 0.8 µM; in test [2], 1 µM; in test [3], 0.06 µM; in [4], 0.1 µM; in test [5], 1.2 µM. Besides, the GI50 in test [6] was 0.1 µM; in test [7] it was 0.9 µM; with PANC-1 it was 6 µM; in test [8] it was 0.1 µM. For the same molecule, at HDAC7, the “IC50 HDAC7” value is on record as “no activity”. Further, at HDAC1, the IC50 is less than 0.1 µM.

For `C/C=C1\NC(=O)c2csc(n2)[C@H](Cc2ccc(O)cc2)NC(=O)C[C@@H](/C=C/CCSC(=O)CCCCCCC)OC(=O)[C@H](C(C)C)NC1=O` [Compound 4-4], the GI50 was 4.26 µM with Incap; 0.006 µM in test [1]; 0.65 µM in test [2]; 1.02 µM in test [3]; 0.05 µM in test [4]; 0.01 µM in test [5]. For the same molecule, the GI50 in [6] is 2.1 µM; in [7], 1 µM; in the test on PANC-1 it was 3.01 µM; in [8] it was 10.2 µM. Besides, the “IC50 HDAC7” value at HDAC7 is “no activity”. The IC50 at HDAC1 was less than 10 µM.

For the molecule `C/C=C1\NC(=O)c2csc(n2)CNC(=O)C[C@@H](/C=C/CCSC(C)=O)OC(=O)[C@H](C(C)C)NC1=O` [Compound 6-2], the GI50 came to 0.9 µM with Incap; 59.6 µM in test [1]; 41 µM in [2]; 4.6 µM in test [3]; 0.4 µM in test [4]; 15.6 µM in [5]. In addition, the GI50 in [6] stood at 1.6 µM; in [7] it was 73.5 µM; in the test with PANC-1, 0.68 µM; in test [8] it was 2.65 µM. For the same molecule, the “IC50 HDAC7” value against HDAC7 was “no activity”. The IC50 on HDAC1 is less than 10 µM.
